This experiment concerns the target SARS-CoV-2 NSP3 macrodomain (Mac1) (Severe acute respiratory syndrome coronavirus 2, UniProt P0DTD1). Kind of experiment: biochemical. The experiment is classed as binding.
[1] abbreviates: Single dose, concentration 200 μM.
The mark [2] stands for this setting: compound at 200 μM, mean of three to four technical replicates, read-out: % competition at 200 μM (preliminary HTRF screen).
Where [3] appears, read: single dose concentration 200 μM (TS-FrankenROCS series).
[4] abbreviates: SARS CoV-2 macrodomain HTRF assay.
The mark [5] stands for this setting: SARS CoV-2 macrodomain HTRF assay, dose-response, read-out: IC50.
The mark [6] stands for this setting: SARS CoV-2 macrodomain HTRF assay, single dose concentration 200 μM.

The structures appear in SMILES notation. Like-named read-outs stand apart in the source and are kept apart here.

`CC(NC(=O)c1ccc(N)nc1Cl)C(O)c1cccc(F)c1` (stereo not drawn) [AVI-349] showed an Average % competition of 15%. In turn, `O=C(O)C(F)(F)F.OC[C@@H](CCc1ccccc1)Nc1ncnc2[nH]ccc12` [AVI-3654] showed an Average % competition under setting [1] of 27%. The inhibition at 200 µM under setting [2] worked out at 27%. In the case of `Cc1ccc2c(c1)C(=O)N(CCC(=O)Nc1cnc3c(c1)c(C)nn3C)C2=O` [AVI-301], the Average % competition was 16%.

By IC50 is commonly meant the point on the concentration scale where inhibition reaches its midpoint. Turning to `Cc1ncc(CN(C)C(=O)c2cccc(N)c2F)s1` [AVI-293], where the note is “dose-response, read-out: IC50”, the IC50 was above 1000 µM. The compound also came in with an Average % competition under setting [3] of 14%. With `O=C(O)C(F)(F)F.OCC(Cc1cccc(F)c1)Nc1ncnc2[nH]ccc12` (stereo not drawn) [AVI-3706], the Average % competition under setting [1] was found to be 77%. Besides, under setting [2], the inhibition at 200 µM stood at 77%. Turning to `N#Cc1cnc(CSc2nc(-c3ccccc3)co2)nc1N` [AVI-332], the Average % competition is given as below 10%. With `Nc1cccc(CSC2CCc3ccccc32)n1` (stereo not drawn) [AVI-6015], the IC50 (read-out: IC50) is above 1000 µM. Take `Cc1nc(-c2cccc(NC(=O)NCc3cccs3)c2)n[nH]1` [AVI-306]: the IC50 (dose-response, read-out: IC50) was above 1000 µM. For the compound `OC1CC(Cn2ccnc2)CC1Nc1ncnc2[nH]ccc12` (stereo not drawn) [AVI-3725], the Average % competition under setting [1] came to 29%. In addition, the inhibition at 200 µM under setting [2] came out at 29%. The term Ki denotes a dissociation constant, usually derived from enzyme kinetics or from competition with a known ligand. Turning to `CC1(C)CCC(O)(CNc2ncnc3[nH]ccc23)CC1` [AVI-4310], under setting [4], the Ki was determined as 71 µM and the “Ligand efficiency (binding enery per heavy atom)” value is given as 0.29. Besides, under setting [5], the IC50 was 76 µM.

In turn, `O=C(O)C(F)(F)F.OCC(CC1CCOCC1)Nc1ncnc2[nH]ccc12` (stereo not drawn) [AVI-3676] registered an Average % competition under setting [1] below 10%. In addition, the inhibition at 200 µM under setting [2] is below 10%.

In turn, `CNS(=O)(=O)c1cc(C(=O)N2CCOc3ccccc32)n(C)c1` [AVI-309] gave an Average % competition of 0%.

With `OCC1C=CCCN1c1ncnc2[nH]ccc12` (stereo not drawn) [AVI-5998], under setting [4], the Ki amounted to 150 µM and the “Ligand efficiency (binding enery per heavy atom)” value is reported as 0.31. Further, the IC50 under setting [5] was 160 µM. `Cc1ccc(O)c(C(=O)c2cnn3c(N)nnc3c2)c1` [AVI-310] yielded an Average % competition of 0%. Take `OC1(CNc2ncnc3[nH]ccc23)CCCC(C(F)(F)F)C1` (stereo not drawn) [AVI-4309]: under setting [4], the Ki amounted to 140 µM and the “Ligand efficiency (binding enery per heavy atom)” value is 0.24. Moreover, the IC50 under setting [5] turned out to be 150 µM.

On to `C[C@H]1CC[C@H](CO)N(c2ncnc3[nH]ccc23)C1` [AVI-4063], for which, under setting [4], the Ki worked out at 52 µM and the “Ligand efficiency (binding enery per heavy atom)” value came to 0.33. For the same compound, the IC50 under setting [5] came to 56 µM. In the case of `OC1(CNc2ncnc3[nH]ccc23)CCC2(CC1)OCCO2` [AVI-4315], under setting [4], the Ki worked out at 200 µM and the “Ligand efficiency (binding enery per heavy atom)” value stood at 0.23. The IC50 under setting [5] is 210 µM. `CN(C)C[C@@]1(O)CCCN(c2ncnc3[nH]ccc23)C1` [AVI-614] displayed an Average % competition under setting [6] below 10%. In addition, the inhibition at 200 µM under setting [2] is below 10%.

Consider `CC1CCCC1OC(=O)Cn1cnc2c1c(=O)n(C)c(=O)n2C` (stereo not drawn) [AVI-335], for which the Average % competition is given as below 10%. For the compound `OCC1CCC2(CCOCC2)CN1c1ncnc2[nH]ccc12` (stereo not drawn) [AVI-4065], under setting [4], the Ki is 400 µM and the “Ligand efficiency (binding enery per heavy atom)” value amounted to 0.21. In addition, the IC50 under setting [5] is 430 µM. `O=C(O)C(F)(F)F.O=[N+]([O-])c1ccc(C(O)C(CO)Nc2ncnc3[nH]ccc23)cc1` (stereo not drawn) [AVI-3672] came in with an Average % competition under setting [1] of 43%. The inhibition at 200 µM under setting [2] is 43%. As for `OCC1CC=CCN1c1ncnc2[nH]ccc12` (stereo not drawn) [AVI-6002], under setting [4], the inhibition constant (Ki) came out at 48 µM and the “Ligand efficiency (binding enery per heavy atom)” value is recorded as 0.35. Moreover, the half-inhibitory concentration (IC50) under setting [5] amounted to 52 µM. The compound `c1ccn2c(Sc3ncnc4ccsc34)nnc2c1` [AVI-308] had an Average % competition of 0%. `O=C1COc2cc(C(=O)N3CC(C(=O)O)c4ccccc43)ccc2N1` (stereo not drawn) [AVI-289]: the IC50 (dose-response, read-out: IC50) was above 1000 µM. With `Cc1nn(C)c2sc(C(=O)N3CC(C(=O)O)c4ccccc43)cc12` (stereo not drawn) [AVI-327], the Average % competition is listed as 0%. For the compound `CC(C)CCC(CO)Nc1ncnc2[nH]ccc12.O=C(O)C(F)(F)F` (stereo not drawn) [AVI-3668], the Average % competition under setting [1] came out at 38%. Also, under setting [2], the inhibition at 200 µM amounted to 38%. `CCCC1CCCC1C(=O)N[C@H]1CCc2nc(N)sc2C1` (stereo partly drawn) [AVI-298] had an Average % competition below 10%. Consider `Nc1ncnc(N2CCCCC3(CCC3)C2)c1Cl` [AVI-6017], for which the IC50 (read-out: IC50) was above 1000 µM. `Cc1nnc2n1CCN(C(=O)CN1C(=O)CCOc3ccccc31)C2` [AVI-302] registered an Average % competition of 0%. With `OC1(CNc2ncnc3[nH]ccc23)CCOCC1` [AVI-4314], under setting [4], the affinity, expressed as Ki, was 210 µM and the “Ligand efficiency (binding enery per heavy atom)” value came to 0.28. The IC50 under setting [5] was found to be 230 µM. Take `CC(=O)Nc1ccc(S(=O)(=O)CCCN2C(=O)CC(C)(C(C)C)C2=O)cc1` (stereo not drawn) [AVI-299]: the Average % competition came out at 19%. Take `CC(C)C1CCCN1c1ncnc2[nH]ccc12` (stereo not drawn) [AVI-5216]: the inhibition at 200 µM runs as follows: (SARS CoV-2 macrodomain HTRF assay, single dose concentration 200 μM, read-out: Average % competition) 35%; under setting [2], 35%. The compound `CC(C(=O)NCc1c(C(=O)O)[nH]c2ccccc12)n1cncn1` (stereo not drawn) [AVI-337] showed an Average % competition of 14%. Take `NC(=O)N1CCC[C@H]1C(=O)Nc1ccc2ncnn2c1` [AVI-330]: the Average % competition came to 14%. Take `CCOc1ccc(-c2nc(CC(=O)N3CCn4cccc4C3C)cs2)cc1` (stereo not drawn) [AVI-325]: the Average % competition is 0%.

`CC1CCCC(O)(CNc2ncnc3[nH]ccc23)C1` (stereo not drawn) [AVI-4307]: under setting [4], the Ki was 37 µM and the “Ligand efficiency (binding enery per heavy atom)” value is on record as 0.32. The IC50 under setting [5] came out at 40 µM. Take `O=C(O)C1CN(C(=O)c2ccc3c(c2)OCCO3)CCO1` (stereo not drawn) [AVI-323]: the Average % competition came to 7%. Regarding `CC1c2ccsc2CCN1C(=O)Cc1csc(-c2ccccc2)n1` (stereo not drawn) [AVI-287], the Average % competition stood at 0%. Regarding `CN(CC1(O)CCOCC1)c1ncnc2[nH]ccc12` [AVI-4318], under setting [4], affinity was put at a Ki of 66 µM and the “Ligand efficiency (binding enery per heavy atom)” value is reported as 0.30. Moreover, the IC50 under setting [5] came to 71 µM. As to `Cc1ccc(CC(=O)N2CCSC23CC(C(=O)O)C3)cc1O` (stereo not drawn) [AVI-347], the Average % competition is recorded as below 10%. For `CNc1ccc(NS(=O)(=O)c2cc3cccc(C)c3s2)cn1` [AVI-345], under setting [2], the inhibition at 200 µM turned out to be 18%. Under setting [3], this compound gave an Average % competition of 18%.

As to `Nc1ncnc2sc3c(c12)CCN(C(=O)[C@H]1CC=CCC1)C3` [AVI-331], the Average % competition is given as below 10%. Compound `O=C(O)C1CN(C(=O)c2ccc3n[nH]nc3c2)c2ccccc21` (stereo not drawn) [AVI-319] gave an Average % competition of 25%. The same measure, in the same setting: next, `Cc1nc2cc(NC(=O)C3CC(=O)Nc4ccccc43)ccc2o1` (stereo not drawn) [AVI-292]: 0%.

Turning to `OC1(CNc2ncnc3[nH]ccc23)CCCOC1` (stereo not drawn) [AVI-4311], under setting [4], the affinity corresponds to a Ki of 160 µM and the “Ligand efficiency (binding enery per heavy atom)” value is 0.29. The IC50 under setting [5] was 170 µM. `Cc1noc(NCc2cc3ccccc3[nH]c2=O)n1` [AVI-322] gave an Average % competition of 0%.

Consider `Cn1ccc2cc(NC(=O)C3CC(=O)NC4CCCCC43)ccc21` (stereo not drawn) [AVI-342], for which the Average % competition is below 10%. For the compound `Nc1cc(N2CCC3CCCCC3C2)ncn1` (stereo not drawn) [AVI-339], the IC50 (dose-response, read-out: IC50) is above 1000 µM. The compound also showed an Average % competition under setting [3] below 10%. For the compound `O=C(O)C(F)(F)F.OC1c2ccccc2CC1Nc1ncnc2[nH]ccc12` (stereo not drawn) [AVI-3634], the Average % competition under setting [1] is listed as below 10%. For the same compound, the inhibition at 200 µM under setting [2] was below 10%. Compound `Cc1ccc(N2CCN(c3ncnc(-c4ccccc4)n3)CC2=O)cc1` [AVI-336] had an Average % competition below 10%. `CC(OC(=O)c1ccc2nc(N)sc2c1)C(=O)N1CCCCCC1` (stereo not drawn) [AVI-304] came in with an Average % competition of 0%. `CC(C)(CO)Nc1ncnc2[nH]ccc12` [AVI-5266] yielded a Ki under setting [4] of 30 µM. The IC50 under setting [5] was found to be 32 µM. `O=C(O)c1ccc2c(c1)C(NC(=O)C1CCn3ncnc3C1)CCC2` (stereo not drawn) [AVI-333] gave an Average % competition of 21%. On to `O=C(O)C1CN(C(=O)c2cccc3[nH]ccc23)c2ccccc21` (stereo not drawn) [AVI-314], for which, for the setting “dose-response, read-out: IC50”, the IC50 was above 1000 µM. `OC1(CNc2ncnc3[nH]ccc23)CCC(F)(F)CC1` [AVI-4308]: under setting [4], the Ki is 130 µM and the “Ligand efficiency (binding enery per heavy atom)” value is given as 0.27. Moreover, the IC50 under setting [5] turned out to be 140 µM. In the case of `O[C@@]1(Cn2ccnn2)CCCN(c2ncnc3[nH]ccc23)C1` [AVI-608], the Average % competition under setting [6] came to 8%. The inhibition at 200 µM under setting [2] was below 10%.

In turn, `CC1(c2ccc(F)cc2)CN(C(=O)c2cnc(N)nc2C(F)(F)F)C1` [AVI-340] had an Average % competition of 20%.

As for `OC1(CNc2ncnc3[nH]ccc23)CCCSC1` (stereo not drawn) [AVI-4322], under setting [4], the affinity, expressed as Ki, was 49 µM and the “Ligand efficiency (binding enery per heavy atom)” value came to 0.33. In addition, the concentration for half-maximal inhibition (IC50) under setting [5] is 53 µM. As to `O=S1(=O)CCCC(O)(CNc2ncnc3[nH]ccc23)C1` (stereo not drawn) [AVI-4317], under setting [4], the affinity, expressed as Ki, was 100 µM and the “Ligand efficiency (binding enery per heavy atom)” value turned out to be 0.28. Moreover, the IC50 (read-out: IC50 (confirmatory HTRF dose-response screen)) worked out at 110 µM.

As for `O=C1CCc2cc(C(=O)N3CC(C(=O)O)CCC34CCCC4)c(F)cc2N1` (stereo not drawn) [AVI-338], the “Ligand efficiency (binding enery per heavy atom)” value is reported as 0.16. Moreover, the Ki (dose-response) stood at 740 µM. The IC50 (dose-response, read-out: IC50) came to 800 µM.

As to `Cc1nc(N)ncc1C(=O)NCC(O)Cc1ccc(Cl)cc1` (stereo not drawn) [AVI-343], the Average % competition was below 10%. With `O=C(O)C(F)(F)F.OCC(Nc1ncnc2[nH]ccc12)C1CCCO1` (stereo not drawn) [AVI-3645], the Average % competition under setting [1] is listed as 54%. For the same compound, under setting [2], the inhibition at 200 µM came out at 54%.

`O=C(NCCCN1C(=O)NC2(CCCC2)C1=O)c1ccc(=O)[nH]c1` [AVI-300] registered an Average % competition of 8%.

The values above are taken from PMC12118597 (Science Advances, 2025).
